System: Plasmodium berghei
Assay: Luciferase/luciferin-expressing antifolate-resistant parasites were used to infect a culture of HepG2 cells that were pre-incubated with compounds. Infected hepatocytes emit light due to the luciferase reaction. Assay results are presented as the percent inhibition of light emission compared to control. […]
Type: functional
Settings: sporozoite; for IC90: read-out: LUCIFERASE INFECTION ASSAY - IC90
[1] = read-out: LUCIFERASE INFECTION ASSAY - IC50

Row | Structure (SMILES) | IC90 | IC50 [1] | further results
1 | CCOC(=O)c1sc(N)c(C#N)c1CSc1nc(-c2ccccc2)cs1 | 3.69 µM | – | IC50 (HEPG2TOX_HILL_SLOPE 1.34, HEPG2TOX_R_SQUARED 0.985, PBLUC_HILL_SLOPE 11.8, PBLUC_R_SQUARED 0.536, read-out: LUCIFERASE INFECTION ASSAY - IC50): 3.06 µM
2 | Cc1ccc(CN2C(=O)C(O)(c3c[nH]c4ccccc34)c3ccccc32)c(C)c1 (stereo not given) | 6.05 µM | – | IC50 (FFLUC_HILL_SLOPE 13.6, FFLUC_R_SQUARED 0.607, PBLUC_HILL_SLOPE 3.72, PBLUC_R_SQUARED 0.631, read-out: LUCIFERASE INFECTION ASSAY - IC50): 3.35 µM
3 | CN(C)C(=O)N1CCC(C(=O)N2CC(=O)N(C3CCCCC3)CC(OCc3ccncc3)C2)CC1 (stereo not given) | > 6.8 µM | > 6.8 µM | –
4 | COc1cc(-c2nccc3n[nH]c(C4CC4)c23)cc(OC)c1OC | > 10 µM | – | IC50 (HEPG2TOX_HILL_SLOPE 1.34, HEPG2TOX_R_SQUARED 0.994, read-out: LUCIFERASE INFECTION ASSAY - IC50): > 10 µM
5 | N#Cc1cccc(Nc2nc(C(F)(F)F)nc3ccccc23)c1 | > 10 µM | – | IC50 (PBLUC_HILL_SLOPE 4.2, PBLUC_R_SQUARED 0.258, read-out: LUCIFERASE INFECTION ASSAY - IC50): 8.32 µM
6 | Cn1c(-c2cccnc2)cc2cnc(Nc3ccc(OC(F)(F)F)cc3)cc21 | 9.47 µM | – | IC50 (HEPG2TOX_HILL_SLOPE 2.53, HEPG2TOX_R_SQUARED 0.903, PBLUC_HILL_SLOPE 4.19, PBLUC_R_SQUARED 0.443, read-out: LUCIFERASE INFECTION ASSAY - IC50): 5.61 µM
7 | Cc1ccc(-c2n[nH]c(=S)n2CCC(=O)NC(C)c2ccc(F)c(F)c2)cc1 (stereo not given) | > 10 µM | > 10 µM | –
8 | Brc1ccc(Nn2c(-c3ccccc3)nc3c2C2C=CC=CC2C=N3)cc1 (stereo not given) | 5.07 µM | 3.6 µM | –
9 | CC1=C(C(=O)Nc2cc(C)on2)C(c2csc(-c3ccc(Cl)cc3)n2)NC(=S)N1C1CC1 (stereo not given) | 9.79 µM | – | IC50 (FFLUC_HILL_SLOPE 2.07, FFLUC_R_SQUARED 0.469, PBLUC_HILL_SLOPE 2.7, PBLUC_R_SQUARED 0.533, read-out: LUCIFERASE INFECTION ASSAY - IC50): 4.34 µM
10 | Cc1cccc(-c2nn(-c3ccccc3)cc2/C=C/C(=O)c2c(C)[nH]c(=O)[nH]c2=O)c1 | > 10 µM | – | IC50 (PBLUC_HILL_SLOPE 3.1, PBLUC_R_SQUARED 0.412, read-out: LUCIFERASE INFECTION ASSAY - IC50): 5.95 µM
11 | Cc1ccc(C)c(-n2c(SC(C)c3nc(N)nc(N(C)C)n3)nc3ccccc3c2=O)c1 (stereo not given) | > 10 µM | – | IC50 (FFLUC_HILL_SLOPE 0.719, FFLUC_R_SQUARED 0.145, PBLUC_HILL_SLOPE 15.9, PBLUC_R_SQUARED 0.219, read-out: LUCIFERASE INFECTION ASSAY - IC50): 9.47 µM
12 | Cc1sc2ncnc(N3CCC(C(=O)N(CC(C)C)c4nc5ccccc5s4)CC3)c2c1C | > 10 µM | – | IC50 (PBLUC_HILL_SLOPE 1.15, PBLUC_R_SQUARED 0.711, read-out: LUCIFERASE INFECTION ASSAY - IC50): 4.09 µM
13 | Cc1[nH]c2ccccc2c1/C=N/n1c(-c2ccc(Cl)cc2Cl)cs/c1=N\CC1CCCO1 (stereo not given) | 6.77 µM | – | IC50 (FFLUC_HILL_SLOPE 15.4, FFLUC_R_SQUARED 0.637, HEPG2TOX_HILL_SLOPE 0.309, HEPG2TOX_R_SQUARED 0.658, PBLUC_HILL_SLOPE 1.1, PBLUC_R_SQUARED 0.559, read-out: LUCIFERASE INFECTION ASSAY - IC50): 0.923 µM
14 | Cc1nc(=O)c(CCC(=O)Nc2ncc(Cc3cccc(C)c3Cl)s2)c(C)[nH]1 | > 10 µM | 8.8 µM | –
15 | CC(=O)c1ccc(-c2ccc(C(=O)Nc3cnc4c(cnn4C(C)C)c3)o2)cc1 | 8.52 µM | – | IC50 (HEPG2TOX_HILL_SLOPE 16.5, HEPG2TOX_R_SQUARED 0.628, PBLUC_HILL_SLOPE 4.19, PBLUC_R_SQUARED 0.524, read-out: LUCIFERASE INFECTION ASSAY - IC50): 5.04 µM
16 | C=S(=O)(NS(=O)(=O)c1ccc2c(c1)CCN2C(C)=O)c1ccc(C)cc1 (stereo not given) | > 8.41 µM | > 8.41 µM | –
17 | C=CCOC(=O)C1=C(C)N(c2ccc3c(c2)OCCO3)C(=S)NC1c1ccc(F)cc1F (stereo not given) | > 10 µM | – | IC50 (PBLUC_HILL_SLOPE 2.28, PBLUC_R_SQUARED 0.442, read-out: LUCIFERASE INFECTION ASSAY - IC50): 5.73 µM
18 | COc1cc([N+](=O)[O-])ccc1NC(=O)CN1CCc2ccccc2C1 | > 10 µM | > 10 µM | –
19 | CCN(CC(=O)Nc1ccccc1-c1ccccc1)Cc1nc(O)c2ccccc2n1 | 7.89 µM | – | IC50 (FFLUC_HILL_SLOPE 18, FFLUC_R_SQUARED 0.273, HEPG2TOX_HILL_SLOPE 1.8, HEPG2TOX_R_SQUARED 0.962, PBLUC_HILL_SLOPE 1.44, PBLUC_R_SQUARED 0.751, read-out: LUCIFERASE INFECTION ASSAY - IC50): 1.72 µM
20 | CCCc1ccc(C(=O)/C(C#N)=c2\s/c(=C\c3cccs3)c(=O)n2-c2cc(C)ccc2C)cc1 | > 10 µM | – | IC50 (PBLUC_HILL_SLOPE 3.09, PBLUC_R_SQUARED 0.669, read-out: LUCIFERASE INFECTION ASSAY - IC50): 6.42 µM

Row | Structure (SMILES) | IC90 | IC50 [1] | further results
21 | O=C(Nc1ccccc1)Nc1nc2ccc([N+](=O)[O-])cc2s1 | 7.31 µM | – | IC50 (HEPG2TOX_HILL_SLOPE 6.06, HEPG2TOX_R_SQUARED 0.204, PBLUC_HILL_SLOPE 4.24, PBLUC_R_SQUARED 0.473, read-out: LUCIFERASE INFECTION ASSAY - IC50): 4.36 µM
22 | COC(=O)c1c(C(=O)OC)c2n(c1C)CCS2 | > 12.9 µM | > 12.9 µM | –
23 | Clc1ccc(/C=C/c2cnc3ccccc3n2)cc1 | > 12.4 µM | – | IC50 (PBLUC_HILL_SLOPE 0.854, PBLUC_R_SQUARED 0.483, read-out: LUCIFERASE INFECTION ASSAY - IC50): 2.04 µM
24 | Fc1ccc(CNc2ncnc3ccsc23)cc1 | > 10 µM | – | IC50 (HEPG2TOX_HILL_SLOPE 12.4, 1.24, HEPG2TOX_R_SQUARED 0.688, 0.830, PBLUC_HILL_SLOPE 1.50, 7.58, PBLUC_R_SQUARED 0.332, 0.354, read-out: LUCIFERASE INFECTION ASSAY - IC50): 6.82 µM
25 | CC1(C(=O)NCc2ccco2)Cc2c(-c3ccc4c(c3)OCO4)ccnc2O1 (stereo not given) | > 8.72 µM | – | IC50 (FFLUC_HILL_SLOPE 0.436, FFLUC_R_SQUARED 0.176, HEPG2TOX_HILL_SLOPE 1.94, HEPG2TOX_R_SQUARED 0.783, PBLUC_HILL_SLOPE 1.2, PBLUC_R_SQUARED 0.613, read-out: LUCIFERASE INFECTION ASSAY - IC50): 2.28 µM
26 | CC(NC(=O)c1cc(C2CC2)nn1-c1ccccc1)c1ccc(F)cc1F (stereo not given) | > 10 µM | – | IC50 (FFLUC_HILL_SLOPE 3.16, FFLUC_R_SQUARED 0.345, read-out: LUCIFERASE INFECTION ASSAY - IC50): > 10 µM
27 | CN1CCc2nc3sc(C(=O)Nc4ccc(Cl)cc4F)c(N)c3cc2C1 | > 8.44 µM | > 8.44 µM | –
28 | Cc1ccccc1-c1cn2c(-c3cccc(C(=O)N4CCN(C)CC4)c3)cnc2cn1 | > 8.02 µM | – | IC50 (PBLUC_HILL_SLOPE 1.06, PBLUC_R_SQUARED 0.743, read-out: LUCIFERASE INFECTION ASSAY - IC50): 3.76 µM
29 | O=C(Nc1ccccc1N1CCOCC1)c1ccc2noc(-c3ccccc3)c2c1 | > 10 µM | – | IC50 (FFLUC_HILL_SLOPE 1.87, FFLUC_R_SQUARED 0.584, PBLUC_HILL_SLOPE 3.85, PBLUC_R_SQUARED 0.483, read-out: LUCIFERASE INFECTION ASSAY - IC50): 7.96 µM
30 | O=C(Nc1ccc2nc(-c3ccccc3Cl)[nH]c2c1)c1ccc(=O)[nH]n1 | 4.84 µM | – | IC50 (HEPG2TOX_HILL_SLOPE 0.281, HEPG2TOX_R_SQUARED 0.366, PBLUC_HILL_SLOPE 7.23, PBLUC_R_SQUARED 0.542, read-out: LUCIFERASE INFECTION ASSAY - IC50): 3.58 µM
31 | CC(C)(C)c1ccc(C(=O)ONC(=O)c2ccc(Cl)c(Cl)c2)cc1 | > 9.01 µM | > 9.01 µM | –
32 | COc1cccc(C2CNC(c3ccc(Cl)cc3)c3[nH]c4ccccc4c32)c1OC (stereo not given) | 5.44 µM | – | IC50 (PBLUC_HILL_SLOPE 2.02, PBLUC_R_SQUARED 0.709, read-out: LUCIFERASE INFECTION ASSAY - IC50): 1.84 µM
33 | COc1cc(/C=N/Nc2ccc(C(F)(F)F)cn2)ccc1OS(=O)(=O)c1ccc(C)c([N+](=O)[O-])c1 | > 10 µM | – | IC50 (FFLUC_HILL_SLOPE 3.31, FFLUC_R_SQUARED 0.75, read-out: LUCIFERASE INFECTION ASSAY - IC50): > 10 µM
34 | CC(C)(C)c1ccc(-n2nnnc2-c2ccccc2)cc1 | > 11.9 µM | – | IC50 (PBLUC_HILL_SLOPE 1.83, PBLUC_R_SQUARED 0.134, read-out: LUCIFERASE INFECTION ASSAY - IC50): 6.62 µM
35 | CCOC(=O)c1ccc(N2CCN(C(=O)CCc3cc(C(C)(C)C)c(O)c(C(C)(C)C)c3)CC2)nc1 | > 10 µM | > 10 µM | –
36 | CN(C)CCCOc1ccc(-c2cn3c(-c4ccc5ncccc5c4)cnc3cn2)cn1 | 7.35 µM | – | IC50 (HEPG2TOX_HILL_SLOPE 9.84, HEPG2TOX_R_SQUARED 0.59, PBLUC_HILL_SLOPE 45.1, PBLUC_R_SQUARED 0.189, read-out: LUCIFERASE INFECTION ASSAY - IC50): 7 µM
37 | CN(C)CCNc1ccnc2c(-c3ccccc3F)cnn12 | 1.46 µM | – | IC50 (FFLUC_HILL_SLOPE 9.41, FFLUC_R_SQUARED 0.56, PBLUC_HILL_SLOPE 1.12, PBLUC_R_SQUARED 0.894, read-out: LUCIFERASE INFECTION ASSAY - IC50): 0.204 µM
38 | COC(=O)c1cc(C(=O)OC)cc(-n2c(C)cc(C(O)(C(=O)OC)C(F)(F)F)c2C)c1 (stereo not given) | > 10 µM | > 10 µM | –
39 | O=C(CN1CCN(C(=O)C2COc3ccccc3O2)CC1)Nc1ccccc1-c1ccccc1 (stereo not given) | > 10 µM | > 10 µM | –
40 | CC(C)[C@H](Nc1ccc(C(F)(F)F)cc1Cl)C(=O)Nc1ccc(C#N)cc1 | 3.14 µM | – | IC50 (HEPG2TOX_HILL_SLOPE 3.39, HEPG2TOX_R_SQUARED 0.849, PBLUC_HILL_SLOPE 25.1, 22.4, PBLUC_R_SQUARED 0.626, 0.774, read-out: LUCIFERASE INFECTION ASSAY - IC50): 2.85 µM

— ChEMBL document CHEMBL4483862, “Open-source discovery of chemical leads for next-generation chemoprotective antimalarials” (2018)
